The values below come from patent US20220339122A1, “METHODS FOR THE TREATMENT OF DISEASES ASSOCIATED WITH DYSREGULATED ACTIVATION AND RECRUITMENT OF NEUTROPHILS” (Chang Gung University, priority 2021, published 2022).

Data set [1] concerns human neutrophils. The experiment in a line: NET formation, quantification of extracellular DNA with Sytox green. Format: cell-based. Particulars: 10 nM PMA; 1-10 μM bletinib. How it is done: Human neutrophils (10^6 cells/mL) resuspended in HBSS with 2.5 μM Sytox green were incubated with DMSO or bletinib for 10 min and stimulated using 10 nM PMA or 10 μg/mL LPS for 3 h. The fluorescence intensity was quantified on a Tecan Infinite 200 reader at 485-535 nm.

The target in the next data set is Hck (Homo sapiens, UniProt P08631). Briefly: Cell-free ADP-Glo kinase assay, Hck. Format: biochemical. To be noted: 1-10 μM bletinib or 0.1-3 μM PP2; 125 μM ATP; concentration-dependent. The procedure:
(§1) The kinase activity of SFKs was assessed using an ADP-Glo kinase assay kit (Promega, Fitchburg, USA) according to manufacturer instructions. […] The ADP-Glo reagent was used to end the kinase reaction and remove the remnant ATP; next, the kinase, which converted ADP to ATP, detection reagent was added and incubated for 30 min. Luciferin/luciferase luminescence was determined on an Infinite 200 Pro (Tecan, Switzerland).
(In general: In ADP-Glo the light output rises with the ADP produced.)

In another data set the test system is p-ERK. The experiment in a line: Immunoblotting of neutrophil lysates, ERK phosphorylation. Particulars: 10 μM bletinib; 0.1 μM fMLF. Format: cell-based, human. How it is done:
(§2) Neutrophils incubated with bletinib or DMSO at 37° C. for 5 min were stimulated with 0.1 μM fMLF for 30 s. The proteins were separated from neutrophil lysates through electrophoresis (12% sodium dodecyl sulphate-polyacrylamide gel electrophoresis) and then transferred to nitrocellulose membranes. The target proteins were identified through immunoblotting with specific antibodies against p38, p-p38, Akt, p-Akt S473, ERK, p-ERK, INK, p-JNK, Src, p-SFKs Y416, p-Src Y416, Lyn, p-Lyn (Y396), Fgr, p-Fgr (Y412), Hck, p-Hck (Y410), Btk, p-Btk Y223, Vav, and p-Vav (Y174) as well as with HRP-conjugated secondary anti-rabbit antibody (Cell Signaling Technology). The signal intensity was detected and quantified using the UVP BioSpectrum Imaging System (Analytik Jena, USA).

The next data set has as its system CD11b (integrin αM). Briefly: Surface CD11b expression, flow cytometry. Format: cell-based, human. The procedure: Neutrophils (5×10^5 cells/mL) were incubated with bletinib or DMSO for 5 min and then activated through incubation with 0.1 μM fMLF/1 μg/mL CB for 5 min. After centrifugation at 200×g for 8 min at 4° C., the cells were resuspended in 5% bovine serum albumin with FITC-conjugated antibodies against CD18 or CD11b on ice in the dark for 15 min. The fluorescent intensity was then analysed through fluorescence-activated cell sorting.
In general terms: A flow cytometer gives signals particle by particle.

Another data set has as its system p-SFKs Y416. The experiment in a line: Immunoblotting of neutrophil lysates, SFKs phosphorylation. Format: cell-based, human. Particulars: 10 μM bletinib; 0.1 μM fMLF. How it is done: as §2
On the technique in general: A western blot detects proteins with antibodies after separation by electrophoresis.

Data set [2] concerns human neutrophils. Briefly: Total ROS production, luminol-amplified chemiluminescence. Format: cell-based. Particulars: 0.1-3 μM bletinib; 0.1 μM fMLF; dose-dependent. How it is done: Human neutrophils (2×10^6 cells/mL) were preincubated with 6 U mL^−1 horseradish peroxidase (HRP) and 37.5 μM luminol in a 96-well plate at 37° C. for 5 min. Cells were incubated with DMSO or bletinib for 5 min, followed by 0.1 μM fMLF stimulation. Chemiluminescence was then detected and analysed in real time on a 96-well chemiluminometer (Tecan Infinite F200 Pro; Mannedorf, Switzerland).

Data set [3] deals with human neutrophils. Briefly: NET photography (immunofluorescence and scanning electron microscopy). Format: cell-based. Particulars: 10 nM PMA; 1-10 μM bletinib. The procedure:
Neutrophils (3×10^5 cells/mL) were incubated with DMSO or bletinib for 10 min before being activated with 10 nM PMA for 2 h. Neutrophils were fixed with 4% paraformaldehyde and treated with 5% goat serum blocking buffer for 1 h and then treated with […] anti-MPO (Abcam) and 5 μg/mL anti-NE (Merck Millipore) antibodies for 1 h. These cells were then treated with the Alexa 488 or 568-labelled secondary goat anti-rabbit antibody for another 1 h. Thereafter, the cells were washed with PBS and treated with 1 ng/mL Hoechst 33342 and ProLong Gold antifade reagent (Invitrogen, CA, USA). Immunofluorescence microscopy and scanning electron microscopy were both used to observe the NET formation of activated neutrophils.

The target in a further data set is Fgr (Homo sapiens, UniProt P09769). The experiment in a line: Cell-free ADP-Glo kinase assay, Fgr. Format: biochemical. To be noted: 1-10 μM bletinib or 0.1-3 μM PP2; 125 μM ATP; concentration-dependent. The procedure:
as §1

Data set [4] deals with human neutrophils. The experiment in a line: Neutrophil adhesion to bEnd.3 cells. Format: cell-based. Particulars: 1-10 μM bletinib; fMLF/CB. The procedure:
Human neutrophils (10^6 cells/mL) were labelled with Hoechst 33342 and then incubated with DMSO or Bletinib for 5 min. After centrifugation, the cells were resuspended and activated with 0.1 μM fMLF/1 μg/mL CB for 10 min before incubation with bEnd.3 cells at 37° C. for 30 min. After they were washed with HBSS, the cells were fixed with 4% paraformaldehyde and the neutrophils that adhered to the bEnd.3 cells were detected and quantified on a motorised inverted microscope (Olympus, Japan).
Adhesion and transmigration are both crucial steps in the neutrophil recruitment cascade during inflammation. In this example, to examine whether bletinib would interfere the adhesion and transmigration process, human neutrophils (10^6 cells/mL) were first labeled with Hoechst 33342, then pre-treated with bletinib (1-10 μM) and followed by stimulation with fMLF, then incubated with bEnd.3 cells in 37° C. for 30 min. […] Furthermore, IL-8 served as a chemotactic factor for the attraction of neutrophils.

A further data set addresses Lyn (Homo sapiens, UniProt P07948). Briefly: Cell-free ADP-Glo kinase assay, Lyn. Format: biochemical. Particulars: 1-10 μM bletinib or 0.1-3 μM PP2; 125 μM ATP; concentration-dependent. How it is done:
as §1

Another data set deals with Fgr (Y412). Briefly: Immunoblotting of neutrophil lysates, Fgr phosphorylation. Format: cell-based, human. To be noted: 0.1 μM fMLF-stimulated neutrophils. How it is done:
as §2

In a further data set the test system is Hck (Y410). Briefly: Immunoblotting of neutrophil lysates, Hck phosphorylation. To be noted: 0.1 μM fMLF-stimulated neutrophils. Format: cell-based, human. The procedure:
as §2

For another data set, the system named is Akt (S473). Briefly: Immunoblotting of neutrophil lysates, Akt phosphorylation. Particulars: 10 μM bletinib; 0.1 μM fMLF. Format: cell-based, human. The procedure:
as §2

For a further data set, the system named is Src (Y416). The experiment in a line: Immunoblotting of neutrophil lysates, Src phosphorylation. Format: cell-based, human. To be noted: 0.1 μM fMLF-stimulated neutrophils. The procedure: as §2
For the next data set, the system named is Lyn (Y396). The experiment in a line: Immunoblotting of neutrophil lysates, Lyn phosphorylation. Format: cell-based, human. Particulars: 0.1 μM fMLF-stimulated neutrophils. The procedure: as §2
Data set [5] relates to human neutrophils. Briefly: Cytotoxicity assessed using LDH release. Format: cell-based. How it is done:
FIG. 1 Bletinib suppressed superoxide anion production in stimulated human neutrophils. Neutrophils (6×10^5 cells/mL) were incubated with 0.1% DMSO or […] bletinib for 5 min before activation with stimuli. Superoxide anion production was induced by (A) fMLF, (B) MMK-1, (C) NaF, or (D) PMA and then measured using ferricytochrome c reduction method. (E) Cytotoxicity was assessed using LDH release. (F) Superoxide scavenging capacity of bletinib was assessed in a xanthine/xanthine oxidase cell-free system. WST-1 reduction was measured through spectrophotometry at 450 nm, with 20 U/mL superoxide dismutase as the positive control.

Sequence of Lyn (P07948 whole entry): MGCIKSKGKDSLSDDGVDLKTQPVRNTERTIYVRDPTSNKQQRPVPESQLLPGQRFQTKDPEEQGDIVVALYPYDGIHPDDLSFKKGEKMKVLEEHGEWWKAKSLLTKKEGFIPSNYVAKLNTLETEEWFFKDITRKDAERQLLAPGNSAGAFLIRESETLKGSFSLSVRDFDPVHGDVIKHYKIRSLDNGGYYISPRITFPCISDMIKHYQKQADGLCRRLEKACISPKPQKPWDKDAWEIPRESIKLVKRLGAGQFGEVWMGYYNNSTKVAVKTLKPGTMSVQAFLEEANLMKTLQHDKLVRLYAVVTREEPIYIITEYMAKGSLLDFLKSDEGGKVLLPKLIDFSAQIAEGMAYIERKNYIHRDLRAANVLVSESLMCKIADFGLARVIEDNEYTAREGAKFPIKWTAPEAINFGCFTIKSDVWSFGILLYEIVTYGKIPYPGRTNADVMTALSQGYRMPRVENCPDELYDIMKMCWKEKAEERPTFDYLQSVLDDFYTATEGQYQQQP
Sequence of Hck (P08631 whole entry): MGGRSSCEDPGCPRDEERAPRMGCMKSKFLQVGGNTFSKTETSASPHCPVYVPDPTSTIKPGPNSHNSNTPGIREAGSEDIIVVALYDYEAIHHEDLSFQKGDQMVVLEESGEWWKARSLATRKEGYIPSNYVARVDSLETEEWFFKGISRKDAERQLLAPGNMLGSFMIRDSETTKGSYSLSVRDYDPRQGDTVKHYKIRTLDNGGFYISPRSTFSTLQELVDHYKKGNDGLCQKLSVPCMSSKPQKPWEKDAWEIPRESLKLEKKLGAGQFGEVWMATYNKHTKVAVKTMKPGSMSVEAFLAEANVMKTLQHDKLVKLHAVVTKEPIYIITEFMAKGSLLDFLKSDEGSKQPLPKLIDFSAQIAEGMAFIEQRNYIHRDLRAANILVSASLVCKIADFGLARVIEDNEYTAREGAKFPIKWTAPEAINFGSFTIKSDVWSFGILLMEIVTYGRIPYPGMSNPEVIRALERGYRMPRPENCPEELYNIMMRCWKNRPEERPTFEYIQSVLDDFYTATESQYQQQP
Sequence of Fgr (P09769 whole entry): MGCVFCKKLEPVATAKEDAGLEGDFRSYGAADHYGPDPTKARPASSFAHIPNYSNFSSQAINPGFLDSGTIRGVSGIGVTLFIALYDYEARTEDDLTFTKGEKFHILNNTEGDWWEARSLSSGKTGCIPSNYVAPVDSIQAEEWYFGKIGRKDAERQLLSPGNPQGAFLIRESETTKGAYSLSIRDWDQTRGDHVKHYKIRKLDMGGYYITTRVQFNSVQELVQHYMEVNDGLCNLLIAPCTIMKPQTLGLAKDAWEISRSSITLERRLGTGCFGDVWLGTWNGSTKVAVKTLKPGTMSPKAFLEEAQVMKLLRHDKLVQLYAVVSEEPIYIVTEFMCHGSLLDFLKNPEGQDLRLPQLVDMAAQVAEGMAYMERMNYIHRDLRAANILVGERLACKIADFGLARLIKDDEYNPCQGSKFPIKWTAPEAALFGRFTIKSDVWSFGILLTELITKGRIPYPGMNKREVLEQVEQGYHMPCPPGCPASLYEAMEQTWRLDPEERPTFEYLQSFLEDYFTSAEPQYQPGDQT

As to `COc1cc(O)cc(CCc2c(Cc3ccc(O)cc3)ccc(O)c2Cc2ccc(O)cc2)c1` [bletinib, 3,3′-dihydroxy-2′,6′-bis(p-hydroxybenzyl)-5-methoxybibenzyl], the “NET formation induced by PMA, fluorescent spectrometry (Sytox green)” value with human neutrophils [1] is reported as “significantly mitigated”. Moreover, the “kinase activity of Hck” value on Hck is given as “inhibited”. Moreover, the “phosphorylation of ERK” value with p-ERK is reported as “significantly inhibited”. Moreover, the “expression of CD11b in fMLF-stimulated human neutrophils” value with CD11b (integrin αM) (1-10 μM bletinib, 0.1 μM fMLF/CB) was “significantly attenuated”. In the data set on CD11b (integrin αM) (IL-8, data not shown), the “IL-8-induced CD11b expression” value is listed as “restrained”. Besides, the “phosphorylation of SFKs” value with p-SFKs Y416 was “significantly inhibited”. Also, in the data set on human neutrophils [2], the “ROS production, luminol-amplified chemiluminescence” value is “significantly suppressed”. In addition, the “NET formation, immunofluorescent staining and scanning electron microscopy images” value with human neutrophils [3] is recorded as “effectively inhibited”. For the same molecule, the “kinase activity of Fgr” value on Fgr is listed as “inhibited”. The “adhesion function of fMLF-activated neutrophils (adhered on bEnd.3 cells)” value with human neutrophils [4] is on record as “inhibited”. Also, the “kinase activity of Lyn” value on Lyn is “inhibited”. In addition, in the data set on Fgr (Y412), the “phosphorylation of Fgr (Y412)” value is “significantly inhibited”. Besides, in the data set with Hck (Y410), the “phosphorylation of Hck (Y410)” value was “significantly inhibited”. The “phosphorylation of Akt” value with Akt (S473) is recorded as “but not”. For the same molecule, the “phosphorylation of Src (Y416)” value in the data set with Src (Y416) is listed as “significantly inhibited”. Moreover, the “phosphorylation of Lyn (Y396)” value in the data set on Lyn (Y396) was “significantly inhibited”. The “cytotoxicity (LDH release)” value in the data set on human neutrophils [5] is listed as “did not exhibit cytotoxicity”.
